Reference: ChEMBL document CHEMBL1123842, “Structural modification study of mitoxantrone (DHAQ). Chloro-substituted mono- and bis[(aminoalkyl)amino]anthraquinones” (1987)

Columns and labels:
P388 [1] = assay: In vivo antineoplastic activity was determined in BDF1 mice implanted with P388 leukemia and activity is expressed as T/C at 120 mg/kg ip dose (Q1dx5 treatment); conditions: route intraperitoneal
L1210 = assay: In vitro cytotoxicity against L1210 leukemia cells was determined; assay type: functional; conditions: Mus musculus
P388 [2] = assay: In vivo antineoplastic activity was determined in BDF1 mice implanted with P388 leukemia and activity is expressed as T/C at 60 mg/kg ip dose (Q1dx5 treatment); conditions: route intraperitoneal
P388 [3] = assay: In vivo antineoplastic activity was determined in BDF1 mice implanted with P388 leukemia and activity is expressed as T/C at 30 mg/kg ip dose (Q1dx5 treatment); conditions: route intraperitoneal
P388 [4] = assay: In vivo antineoplastic activity was determined in BDF1 mice implanted with P388 leukemia and activity is expressed as T/C at 120 mg/kg ip dose (Q1dx5 treatment); conditions: route intraperitoneal; remark: listed apart in the source
[5] = tested on: Colon adenocarcinoma cell line; assay: In vitro cytotoxicity against Human colon adenocarcinoma cells was determined; assay type: functional
P388 [6] = assay: In vivo antineoplastic activity was determined in BDF1 mice implanted with P388 leukemia and activity is expressed as T/C at 200 mg/kg ip dose (Q4dx2 treatment); assay type: functional, Mus musculus; conditions: route intraperitoneal
P388 [7] = assay: In vivo antineoplastic activity was determined in BDF1 mice implanted with P388 leukemia and activity is expressed as T/C at 100 mg/kg ip dose (Q4dx2 treatment); assay type: functional, Mus musculus; conditions: route intraperitoneal
P388 [8] = assay: In vivo antineoplastic activity was determined in BDF1 mice implanted with P388 leukemia and activity is expressed as T/C at 400 mg/kg ip dose (Q4dx2 treatment); assay type: functional, Mus musculus; conditions: route intraperitoneal
P388 [9] = assay: In vivo antineoplastic activity was determined in BDF1 mice implanted with P388 leukemia and activity is expressed as T/C at 80 mg/kg ip dose (Q4dx2 treatment); assay type: functional, Mus musculus; conditions: route intraperitoneal
P388 [10] = assay: In vivo antineoplastic activity was determined in BDF1 mice implanted with P388 leukemia and activity is expressed as T/C at 40 mg/kg ip dose (Q4dx2 treatment); assay type: functional, Mus musculus; conditions: route intraperitoneal
P388 [11] = assay: In vivo antineoplastic activity was determined in BDF1 mice implanted with P388 leukemia and activity is expressed as T/C at 200 mg/kg ip dose (Q1dx5 treatment); conditions: route intraperitoneal
P388 [12] = assay: In vivo antineoplastic activity was determined in BDF1 mice implanted with P388 leukemia and activity is expressed as T/C at 100 mg/kg ip dose (Q4dx5 treatment); assay type: functional, Mus musculus; conditions: route intraperitoneal
P388 [13] = assay: In vivo antineoplastic activity was determined in BDF1 mice implanted with P388 leukemia and activity is expressed as T/C at 50 mg/kg ip dose (Q4dx2 treatment); assay type: functional, Mus musculus; conditions: route intraperitoneal
B16 [14] = assay: In vivo antineoplastic activity was determined in BDF1 mice implanted with B16 melanoma and activity expressed as T/C at 50 mg/kg ip dose (Q1Dx9 treatment); assay type: functional, Mus musculus; conditions: route intraperitoneal
B16 [15] = assay: In vivo antineoplastic activity was determined in BDF1 mice implanted with B16 melanoma and activity expressed as T/C at 12.5 mg/kg ip dose (Q1Dx9 treatment); assay type: functional, Mus musculus; conditions: route intraperitoneal
B16 [16] = assay: In vivo antineoplastic activity was determined in BDF1 mice implanted with B16 melanoma and activity expressed as T/C at 25 mg/kg ip dose (Q1Dx9 treatment); assay type: functional, Mus musculus; conditions: route intraperitoneal
B16 [17] = assay: In vivo antineoplastic activity was determined in BDF1 mice implanted with B16 melanoma and activity expressed as T/C at 6.25 mg/kg ip dose (Q1Dx9 treatment); assay type: functional, Mus musculus; conditions: route intraperitoneal
P388 [18] = assay: In vivo antineoplastic activity was determined in BDF1 mice implanted with P388 leukemia and activity is expressed as T/C at 80 mg/kg ip dose (Q1dx9 treatment); conditions: route intraperitoneal
P388 [19] = assay: In vivo antineoplastic activity was determined in BDF1 mice implanted with P388 leukemia and activity is expressed as T/C at 160 mg/kg ip dose (Q1dx9 treatment); conditions: route intraperitoneal
P388 [20] = assay: Antineoplastic activity was determined in BDF1 mice in vivo implanted with P388 leukemia and t/c was determined at 40 mg/kg ip dose (Q4dx9 treatment); assay type: functional, Mus musculus; conditions: route intraperitoneal
B16 [21] = assay: In vivo antineoplastic activity was determined in BDF1 mice implanted with B16 melanoma and activity expressed as T/C at 20 mg/kg ip dose (Q1Dx9 treatment); assay type: functional, Mus musculus; conditions: route intraperitoneal
P388 [22] = assay: In vivo antineoplastic activity was determined in BDF1 mice implanted with P388 leukemia and activity is expressed as T/C at 12.5 mg/kg ip dose (Q4dx5 treatment); assay type: functional, Mus musculus; conditions: route intraperitoneal
P388 [23] = assay: In vivo antineoplastic activity was determined in BDF1 mice implanted with P388 leukemia and activity is expressed as T/C at 6.25 mg/kg ip dose (Q4dx5 treatment); assay type: functional, Mus musculus; conditions: route intraperitoneal
B16 [24] = assay: In vivo antineoplastic activity was determined in BDF1 mice implanted with B16 melanoma and activity expressed as T/C at 80 mg/kg ip dose (Q1Dx9 treatment); assay type: functional, Mus musculus; conditions: route intraperitoneal
P388 [25] = assay: In vivo antineoplastic activity was determined in BDF1 mice implanted with P388 leukemia and activity is expressed as T/C at 50 mg/kg ip dose (Q1dx5 treatment); conditions: route intraperitoneal
B16 [26] = assay: In vivo antineoplastic activity was determined in BDF1 mice implanted with B16 melanoma and activity expressed as T/C at 100 mg/kg ip dose (Q1Dx9 treatment); assay type: functional, Mus musculus; conditions: route intraperitoneal
B16 [27] = assay: In vivo antineoplastic activity was determined in BDF1 mice implanted with B16 melanoma and activity expressed as T/C at 40 mg/kg ip dose (Q1Dx9 treatment); assay type: functional, Mus musculus; conditions: route intraperitoneal
P388 [28] = assay: In vivo antineoplastic activity was determined in BDF1 mice implanted with P388 leukemia and activity is expressed as T/C at 100 mg/kg ip dose (Q1dx5 treatment); conditions: route intraperitoneal
B16 [29] = assay: In vivo antineoplastic activity was determined in BDF1 mice implanted with B16 melanoma and activity expressed as T/C at 160 mg/kg ip dose (Q1Dx9 treatment); assay type: functional, Mus musculus; conditions: route intraperitoneal
P388 [30] = assay: In vivo antineoplastic activity was determined in BDF1 mice implanted with P388 leukemia and activity is expressed as T/C at 25 mg/kg ip dose (Q1dx5 treatment); conditions: route intraperitoneal
P388 [31] = assay: In vivo antineoplastic activity was determined in BDF1 mice implanted with P388 leukemia and activity is expressed as T/C at 160 mg/kg ip dose (Q4dx2 treatment); assay type: functional, Mus musculus; conditions: route intraperitoneal
P388 [32] = assay: In vivo antineoplastic activity was determined in BDF1 mice implanted with P388 leukemia and activity is expressed as T/C at 20 mg/kg ip dose (Q4dx2 treatment); assay type: functional, Mus musculus; conditions: route intraperitoneal
P388 [33] = assay: In vivo antineoplastic activity was determined in BDF1 mice implanted with P388 leukemia and activity is expressed as T/C at 10 mg/kg ip dose (Q4dx2 treatment); assay type: functional, Mus musculus; conditions: route intraperitoneal
P388 [34] = assay: In vivo antineoplastic activity was determined in BDF1 mice implanted with P388 leukemia and activity is expressed as T/C at 2 mg/kg; assay type: functional, Mus musculus
P388 [35] = assay: In vivo antineoplastic activity was determined in BDF1 mice implanted with P388 leukemia and activity is expressed as T/C at 0.06 mg/kg; assay type: functional, Mus musculus
P388 [36] = assay: In vivo antineoplastic activity was determined in BDF1 mice implanted with P388 leukemia and activity is expressed as T/C at 0.12 mg/kg; assay type: functional, Mus musculus
P388 [37] = assay: In vivo antineoplastic activity was determined in BDF1 mice implanted with P388 leukemia and activity is expressed as T/C at 0.5 mg/kg; assay type: functional, Mus musculus
P388 [38] = assay: In vivo antineoplastic activity was determined in BDF1 mice implanted with P388 leukemia and activity is expressed as T/C at 0.25 mg/kg; assay type: functional, Mus musculus
P388 [39] = assay: In vivo antineoplastic activity was determined in BDF1 mice implanted with P388 leukemia and activity is expressed as T/C at 1 mg/kg; assay type: functional, Mus musculus

Compound: CN(C)CCNc1ccc(Cl)c2c1C(=O)c1c(O)ccc(O)c1C2=O
- T/C (P388 [1]): 169
- CC50 (L1210): 36.2 nM
- T/C (P388 [2]): 137
- T/C (P388 [3]): 121

Compound: CN(C)CCNc1ccc(O)c2c1C(=O)c1c(Cl)ccc(Cl)c1C2=O
- T/C (P388 [4]): 176
- CC50 (L1210): 86.9 nM
- T/C (P388 [2]): 150
- CC50 [5]: 522 nM
- T/C (P388 [3]): 136

Compound: CN(C)CCNc1ccc(Cl)c2c1C(=O)c1c(Cl)ccc(NCCN(C)C)c1C2=O
- T/C (P388 [6]): 128
- T/C (P388 [7]): 115
- CC50 (L1210): 385 nM
- T/C (P388 [8]): 123
- CC50 [5]: 229 nM

Compound: CN(C)CCNc1ccc(Cl)c2c1C(=O)c1c(O)ccc(Cl)c1C2=O
- T/C (P388 [6]): 113
- CC50 (L1210): 176 nM
- T/C (P388 [8]): 125

Compound: CN(C)CCCNc1ccc(Cl)c2c1C(=O)c1c(O)ccc(O)c1C2=O
- T/C (P388 [1]): 129
- CC50 (L1210): 265 nM
- T/C (P388 [2]): 123
- T/C (P388 [3]): 109

Compound: CN(C)CCNc1ccc(Cl)c2c1C(=O)c1c(Cl)ccc(O)c1C2=O
- T/C (P388 [9]): 117
- CC50 (L1210): 1130 nM
- T/C (P388 [10]): 103

Compound: O=C1c2cccc(NCCNCCO)c2C(=O)c2cccc(Cl)c21
- T/C (P388 [6]): 105
- T/C (P388 [7]): 100
- CC50 (L1210): 1170 nM
- CC50 [5]: 1400 nM

Compound: CN(C)CCNc1ccc(Cl)c2c1C(=O)c1c(NCCN(C)C)ccc(Cl)c1C2=O
- T/C (P388 [11]): 119
- T/C (P388 [12]): 113
- CC50 (L1210): 1670 nM

Compound: O=C1c2c(O)ccc(Cl)c2C(=O)c2c(NCCNCCO)ccc(Cl)c21
- T/C (P388 [6]): 96
- T/C (P388 [8]): 111

Compound: CN(C)CCNc1ccc(NCCN(C)C)c2c1C(=O)c1c(Cl)ccc(Cl)c1C2=O
- T/C (P388 [6]): 117
- T/C (P388 [7]): 120
- T/C (P388 [13]): 110
- CC50 (L1210): 117 nM
- T/C (B16 [14]): 133
- T/C value (B16 [15]): 143
- T/C (B16 [16]): 141
- CC50 [5]: 130 nM
- T/C (B16 [17]): 117

Compound: O=C1c2cccc(Cl)c2C(=O)c2c(NCCNCCO)cccc21
- T/C (P388 [18]): 124
- T/C (P388 [19]): 120
- T/C (P388 [20]): 116

Compound: O=C1c2c(O)ccc(NCCNCCO)c2C(=O)c2c(Cl)ccc(Cl)c21
- T/C (B16 [21]): 224
- T/C (P388 [22]): 146
- T/C (P388 [23]): 154
- T/C (B16 [24]): 271
- T/C (P388 [25]): 180
- T/C (B16 [26]): 270
- T/C (B16 [27]): 231
- T/C (P388 [28]): 219
- T/C (B16 [29]): 326
- CC50 (L1210): 86.6 nM
- T/C (P388 [30]): 203
- T/C (B16 [14]): 252
- T/C (B16 [15]): 172
- T/C (B16 [16]): 199
- T/C (B16 [17]): 166

Compound: O=C1c2c(O)ccc(O)c2C(=O)c2c(NCCNCCO)ccc(Cl)c21
- T/C (P388 [31]): 184
- T/C (P388 [32]): 125
- T/C (P388 [33]): 113
- T/C (P388 [9]): 154
- CC50 (L1210): 398 nM
- T/C (P388 [10]): 130

Compound: O=C1c2c(O)ccc(O)c2C(=O)c2c(NCCNCCO)ccc(NCCNCCO)c21 [MITOXANTRONE]
- T/C (P388 [34]): 280
- T/C (P388 [35]): 208
- T/C (P388 [36]): 200
- T/C (P388 [37]): 299
- T/C (P388 [38]): 280
- T/C (P388 [39]): 277
